No end group written: not given here.
What was measured:
[1] = system: CSF virus Margarita strain; details: 72 h
pAb anti-SEQ ID NO: 1 = assay: BIACORE surface plasmon resonance interaction with immobilized peptide; format: binding, rabbit
[2] = system: Parainfluenza virus type 3 (HPIV3); format: cell-based; details: 50 μM; HAE, 3 days
Protein N (SARS-CoV-2) = Protein N (SARS-CoV-2) (Severe acute respiratory syndrome coronavirus 2, UniProt P0DTC9); assay: BIACORE surface plasmon resonance interaction with immobilized peptide; format: binding
SARS-CoV-2 = assay: Treatment of patients infected by SARS-CoV-2 (RT-qPCR of nasopharyngeal swabs); format: in vivo, human; details: for SARS-CoV-2 negative patients/Total: chloroquine
Method: Human studies were conducted in accordance with the Declaration of Helsinki. […] The peptide was administered subcutaneously. The presence of SARS-CoV-2 viral RNA was determined by RT-qPCR (Roche) in nasopharyngeal swabs of the patients every 48 or 96 hours during 15 days. Four groups were formed, each with 20 patients, all in the initial stage of the disease and with similar characteristics. Group 1 patients received the most frequently used treatment in COVID-19 therapy based on Kaletra (Lopinavir/Ritonavir), chloroquine, and Heberon™ Alpha R (IFN α2b). Group 2 received this treatment, plus the peptide identified in the Sequence Listing as SEQ ID NO: 1. The latter was administered subcutaneously, at 2 mg/Kg of weight for 5 days. Group 3 patients received treatment based on Kaletra, chloroquine and a combined formulation of intramuscular IFN a2b (3.0 million international units, MIU) and IFN y (0.5 MIU). Patients in group 4 received the same treatment as Group 3, plus the peptide identified in the Sequence Listing as SEQ ID NO: 1 (2 mg/Kg of weight), subcutaneously for 5 days.

p24 (HIV) = p24 (HIV) (Human immunodeficiency virus type 1 group M subtype B, UniProt P04591); assay: BIACORE surface plasmon resonance interaction with immobilized peptide; format: binding, HIV-1
Dengue 2 virus = Dengue 2 virus replication in primary cultures of lung cells (PFU in VeroE6); format: cell-based; details: 100 μM, 48 hours
Method: The cultures were treated with the peptides for 2 or 24 hours, at concentrations of 0.01 to 100 μM before viral challenge. The medium was discarded and the cells were infected with Dengue 2 virus, at an MOI of 10 for 2 hours at 37° C. and 5% CO2. The virus was eliminated, a wash was then performed and the cultures were treated again with peptides in DMEM medium, and incubated for 48 hours at 37° C. and 5% CO2. Subsequently, the cultures were collected to assess viral performance on VeroE6 cells. For this, the cells were seeded in 24-well plates and when they reached confluence they were infected with serial 10-fold dilutions of the supernatants, incubated for 1 hour at 37° C. and 5% CO2. Next, a wash was carried out with PBS, and a layer of agar in 2× DMEM (1:1) added. The layer was allowed to solidify and incubated for 48 hours at 37° C. 5% CO2. The plates were stained with crystal violet, for the determination of the number of PFUs. The peptides inhibited between 68 and 88% of viral replication (Table 5).

[3] = target: T1, extracellular domain of the ACE2 receptor (Homo sapiens, UniProt Q9BYF1); assay: BIACORE surface plasmon resonance interaction with immobilized peptide; format: binding
T1 construct: the extracellular domain of the ACE2 receptor

Influenza A H1N1 = format: cell-based; details: 50 μM; tracheo-bronchial HAE
AdV 7 Gomen strain = assay: Adenovirus type 7 replication in bronchial HAE (qPCR); format: cell-based; details: 50 μM, 24 hours

T1 sequence (Q9BYF1 18-740): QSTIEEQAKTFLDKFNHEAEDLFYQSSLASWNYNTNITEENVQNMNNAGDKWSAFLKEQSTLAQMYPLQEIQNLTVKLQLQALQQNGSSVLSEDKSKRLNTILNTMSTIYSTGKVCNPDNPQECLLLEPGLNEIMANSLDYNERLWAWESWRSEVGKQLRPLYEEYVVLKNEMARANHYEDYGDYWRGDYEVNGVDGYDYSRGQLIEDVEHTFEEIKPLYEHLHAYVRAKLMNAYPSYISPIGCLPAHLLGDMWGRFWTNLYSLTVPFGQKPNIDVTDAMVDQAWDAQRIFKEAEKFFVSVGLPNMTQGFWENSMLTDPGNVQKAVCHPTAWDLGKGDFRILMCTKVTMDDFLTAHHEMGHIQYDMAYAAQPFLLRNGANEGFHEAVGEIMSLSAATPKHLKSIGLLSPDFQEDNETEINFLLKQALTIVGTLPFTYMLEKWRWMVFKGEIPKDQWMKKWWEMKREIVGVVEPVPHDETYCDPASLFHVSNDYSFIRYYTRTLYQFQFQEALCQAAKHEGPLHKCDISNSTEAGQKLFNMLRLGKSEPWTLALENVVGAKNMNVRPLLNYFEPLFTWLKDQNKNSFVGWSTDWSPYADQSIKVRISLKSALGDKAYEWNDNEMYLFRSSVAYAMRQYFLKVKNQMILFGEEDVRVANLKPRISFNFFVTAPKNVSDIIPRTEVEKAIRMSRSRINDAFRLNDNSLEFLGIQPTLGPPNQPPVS

Sequence: RVTQMNLNDRLASLYDKV [SEQ ID NO: 1]
- IC50 [1]: 300 nM
- Kd (pAb anti-SEQ ID NO: 1): 115 nM
- ka (pAb anti-SEQ ID NO: 1): 2750 M⁻¹ s⁻¹
- kd (pAb anti-SEQ ID NO: 1): 0.000318 s⁻¹
- Parainfluenza Type 3 Inhib. % [2]: 79%
- interaction (signal RU) (Protein N (SARS-CoV-2); 10-200 nM): significant increase in signal
- Kd (Protein N (SARS-CoV-2); analyte 10-200 nM): 3.58 nM
- kd (Protein N (SARS-CoV-2); analyte 10-200 nM): 0.000972 s⁻¹
- Rmax (Protein N (SARS-CoV-2); analyte 10-200 nM, biotinylated peptide on SA chip): 329 RU
- kon (Protein N (SARS-CoV-2); analyte 10-200 nM, read-out: ka): 271000 M⁻¹ s⁻¹
- SARS-CoV-2 negative patients/Total (SARS-CoV-2; day 2, Groups 3/4: Kaletra, IFN a2b + IFN y without/with peptide 2 mg/Kg s.c. 5 days): 0/20
- SARS-CoV-2 negative patients/Total (SARS-CoV-2; day 2 after treatment onset, Groups 1/2: Kaletra, Heberon Alpha R without/with peptide 2 mg/Kg s.c. 5 days): 0/20
- SARS-CoV-2 negative patients/Total (SARS-CoV-2; day 4, Groups 1/2: Kaletra, Heberon Alpha R without/with peptide 2 mg/Kg s.c. 5 days): 16/20
- SARS-CoV-2 negative patients/Total (SARS-CoV-2; day 4, Groups 3/4: Kaletra, IFN a2b + IFN y without/with peptide 2 mg/Kg s.c. 5 days): 17/20
- SARS-CoV-2 negative patients/Total (SARS-CoV-2; day 6, Groups 1/2: Kaletra, Heberon Alpha R without/with peptide 2 mg/Kg s.c. 5 days): 20/20
- SARS-CoV-2 negative patients/Total (SARS-CoV-2; day 6, Groups 3/4: Kaletra, IFN a2b + IFN y without/with peptide 2 mg/Kg s.c. 5 days): 20/20
- SARS-CoV-2 negative patients/Total (SARS-CoV-2; day 10, Groups 1/2: Kaletra, Heberon Alpha R without/with peptide 2 mg/Kg s.c. 5 days): 20/20
- SARS-CoV-2 negative patients/Total (SARS-CoV-2; day 10, Groups 3/4: Kaletra, IFN a2b + IFN y without/with peptide 2 mg/Kg s.c. 5 days): 20/20
- SARS-CoV-2 negative patients/Total (SARS-CoV-2; day 14, Groups 1/2: Kaletra, Heberon Alpha R without/with peptide 2 mg/Kg s.c. 5 days): 20/20
- SARS-CoV-2 negative patients/Total (SARS-CoV-2; day 14, Groups 3/4: Kaletra, IFN a2b + IFN y without/with peptide 2 mg/Kg s.c. 5 days): 20/20
- SARS-CoV-2 negative patients/Total (SARS-CoV-2; day 20, Groups 1/2: Kaletra, Heberon Alpha R without/with peptide 2 mg/Kg s.c. 5 days): 20/20
- SARS-CoV-2 negative patients/Total (SARS-CoV-2; day 20, Groups 3/4: Kaletra, IFN a2b + IFN y without/with peptide 2 mg/Kg s.c. 5 days): 20/20
- patients negative for SARS-CoV-2 (SARS-CoV-2; fourth day after treatment onset, Group 2 (peptide + Kaletra, chloroquine, Heberon Alpha R)): 80%
- patients negative for SARS-CoV-2 (SARS-CoV-2; fourth day after treatment onset, Group 4 (peptide + Kaletra, chloroquine, IFN a2b + IFN y)): 85%
- patients negative for SARS-CoV-2 (SARS-CoV-2; sixth day after treatment onset, Group 2): 100%
- patients negative for SARS-CoV-2 (SARS-CoV-2; sixth day after treatment onset, Group 4): 100%
- interaction (p24 (HIV)): absence of interaction
- Dengue 2 Inhib. % (Dengue 2 virus): 81%
- interaction [3]: neither the RBD nor the ACE2 peptide interact
- Influenza A H1N1 Inhib. % (Influenza A H1N1): 86%
- Adenovirus Ad7 Inhib. % (AdV 7 Gomen strain): 68%

— patent US20250282828A1, “PEPTIDES FOR THE TREATMENT OF RESPIRATORY INFECTIONS OF VIRAL ORIGIN” (CENTRO DE INGENIERÍA GENÉTICA Y BIOTECNOLOGÍA, priority 2020, published 2025)
